This test can be described thus: Inhibition of bovine brain PI-PLCgamma1 at 125 ug/mL.
With `CCCCCC/C=C\CCCCCCCCCc1cccc(O)c1` [3-[10'(Z)-heptadecenyl]phenol], the IC50 was found to be 95 µM.
As to `CCCCCCCCCCCCCCCc1cccc(O)c1` [3-pentadecylphenol], the IC50 turned out to be 92.6 µM.
The same measure for `CCCCCC/C=C\CCCCCCCc1cccc(O)c1C(=O)O` [6-{8(Z)-pentadecenyl}salicylic acid]: 76.3 µM; for `CCCCCCCCCCCCCc1cccc(O)c1` [3-tridecyl phenol]: 88 µM.
The same measure for `CCCCCC/C=C\CCCCCCCCCc1cccc(O)c1C(=O)O` [6-[10'(Z)-heptade-cenyljsalicylic acid]: 74 µM.

Usually IC50 stands for the concentration that inhibits the measured activity by half. Higher therefore signals weaker potency.

The values above are taken from BindingDB's records for doi:10.1021/np970367q (Seoul National University, 1998).
